Measured values published in patent publication US12630571B2, “Crystal form of L-glufosinate and preparation method and use thereof” (JIANGSU SEVENCONTINENT GREEN TECHNOLOGY RESEARCH INSTITUTE …, priority 2022, dated 2026).

Key:
Hygroscopicity test = format: physicochemical; conditions: 48 h; for Weight change (%): 100 g solid
Description: Experimental scheme: 100 g of solids were placed under different humidity for 48 h, and re-measured whether there was a significant change in their quality, and visually inspected whether there was a significant change in their appearance, so as to determine whether the crystal form had hygroscopicity, and the specific results of the crystal forms A, B, and C were shown in Table 7, and the specific results of the crystal forms D and E were shown in Table 8.

Stability test (storage) = format: physicochemical; conditions: for Appearance (change after storage) / Crystal form (change after storage) / Weight change (%): humidity 65%; for stability (in words): compared with the crystal forms in CN111065270A
Description: Experimental method: The crystal forms A, B, and C were stored at a temperature of 60° C. for 7 days, the crystal form changes were re-measured, and the specific results were shown in Table 9.
The crystals obtained in Embodiments 4-9 were stored for 48 days at 25° C. and 60° C., respectively, the crystal form changes were re-measured, and the specific results were shown in Table 10.

[1] = DSC heat absorption and decomposition temperatures (high temperature stability); format: physicochemical; conditions: for Start of heat absorption: DSC; for Peak: DSC endothermic peak temperature
Description: (§1) In the present application, the test instruments and conditions used in the experiment are as follows: • 1. The crystal form of the product was analyzed by X-ray powder diffractometer (XRD, Rigaku D/Max-2500 type, Cu Kα radiation, λKα=0.15406 nm), the emission voltage and current were 40 kV and 100 mA, respectively, and the scanning range was 2-40°, the scan step size was 0.02°, and the scan rate was 8°/min. • 2. Differential Scanning calorimetry (DSC) and Thermogravimetric Analysis (TGA): DSC and TGA analyses were performed using a TGA/DSC Model 1 instrument from Mettler Toledo. The DSC measurement method was as follows: take 5-10 mg of the sample into an aluminum crucible, put it into the instrument, set the nitrogen flow rate to 50 ml/min, 200 ml/min, and increase the temperature from 30° C. to 200° C. at a rate of 10° C./min, and analysis was performed using STAR software from Mettler Toledo. The TGA measurement method was as follows: take 5-10 mg of the sample into an aluminum crucible, put it into the instrument, set the nitrogen flow rate to 20 ml/min, 50 ml/min, and increase the temperature from 30° C. to 200° C. at a rate of 10° C./min, and analysis was performed using STAR software from Mettler Toledo.
For the crystal form A, crystal form B, crystal form D and crystal form E of L-glufosinate ammonium, the data comparison of its high temperature stability were shown in Table 6.

[2] = Thermogravimetric analysis (TGA); format: physicochemical
Description: as §1

[3] = tested on: weeds such as Rumex, Alopecurus aequalis, Euphorbia helioscopia, and bluegrass; experiment: Field efficacy experiment, summary statements over all weeds; format: in vivo; conditions: difference in plant control effect
Description: (§2) The combination of preparation processing and field efficacy test was adopted below.
(§3) The above-mentioned formulations were prepared with the crystals of the embodiments of the present disclosure and the crystal form A in the patent CN111065270A respectively for field efficacy experiments. It was detected that the physical and chemical properties of the aqueous solution products prepared by each crystal form were stable and met the needs of production and use, and at the same time, field experiments were carried out on different weeds. The dosage was 120 mL/mu.
(§4) Referring to the “Pesticide-Guidelines for the field efficacy trials”, 5 sites were investigated in each plot, each site was 1 square meter, and the types of weeds, the total number of plants, the symptoms of poisoning, the number of dead plants, etc. were recorded for each treatment 7 days after the treatment, and then the results of the plant control effect were counted, and the weed mortality was calculated and counted specifically.

Bluegrass = experiment: Field efficacy experiment, plant control effect; format: in vivo; conditions: 10% aqueous solution, 120 mL/mu, 7 days after treatment
Description: as §2, §3, §4

Euphorbia helioscopia = experiment: Field efficacy experiment, plant control effect; format: in vivo; conditions: 10% aqueous solution, 120 mL/mu, 7 days after treatment
Description: as §2, §3, §4

Alopecurus aequalis = experiment: Field efficacy experiment, plant control effect; format: in vivo; conditions: 10% aqueous solution, 120 mL/mu, 7 days after treatment
Description: as §2, §3, §4

Rumex = experiment: Field efficacy experiment, plant control effect; format: in vivo; conditions: 10% aqueous solution, 120 mL/mu, 7 days after treatment
Description: as §2, §3, §4

[4] = listed as Crystal form D of L-Glufosinate Ammonium
[5] = listed as Crystal form D of L-glufosinate ammonium
[6] = listed as Crystal form D of Embodiment 4 of the present disclosure
[7] = listed as Crystal form A of L-glufosinate ammonium
[8] = listed as Crystal form A of Embodiment 1 of the present disclosure
[9] = listed as Crystal form E of L-Glufosinate Ammonium
[10] = listed as Crystal form E of L-glufosinate ammonium
[11] = listed as Crystal form E of Embodiment 5 of the present disclosure
[12] = listed as Crystal form B of L-glufosinate ammonium
[13] = listed as Crystal form B of Embodiment 2 of the present disclosure

## CP(=O)(O)CC[C@H](N)C(=O)O [Crystal form C, L-glufosinate]
Hygroscopicity test; 20° C., humidity 65%
  Weight change (%): +0.02%
Hygroscopicity test; 20° C., humidity 80%
  Weight change (%): +1.54%
Stability test (storage); 60° C., 7 days
  Appearance (change after storage): Unchanged
  Crystal form (change after storage): Unchanged
Stability test (storage)
  stability (in words): excellent stability

## CP(=O)(O)CCC(N)C(=O)O.N (stereo not drawn) [Crystal form in CN113831364A, reference compound]
[1]
  Start of heat absorption: 104° ° C.
  Peak: 115° ° C.

## CP(=O)(O)CC[C@H](N)C(=O)O.N [Crystal form D, L-glufosinate ammonium]
[2]; [4]
  temperature below which the weight of the crystal was basically unchanged: 139.5 °C
  temperature from which weight decreased rapidly (decomposition): 206.5 °C
  temperature from which weight started to decrease slowly (release of ammonia gas): 139.5 °C
[3]
  efficacy higher than other crystal forms of the ammonium salt: about 5%
Hygroscopicity test; 25° C., humidity 65%
  Appearance change: Unchanged
Hygroscopicity test; 25° C., humidity 65%, listed as Embodiment 4
  Weight change (%): +0.03%
Hygroscopicity test; 25° C., humidity 65%, listed as Embodiment 6
  Weight change (%): +0.03%
Hygroscopicity test; 25° C., humidity 65%, listed as Embodiment 7
  Weight change (%): +0.01%
Hygroscopicity test; 25° C., humidity 80%
  Appearance change: Unchanged
Hygroscopicity test; 25° C., humidity 80%, listed as Embodiment 4
  Weight change (%): +1.12%
Hygroscopicity test; 25° C., humidity 80%, listed as Embodiment 6
  Weight change (%): +1.17%
Hygroscopicity test; 25° C., humidity 80%, listed as Embodiment 7
  Weight change (%): +1.12%
[1]; [5]
  Peak: 179.83° ° C.
  Start of heat absorption: 161.84° ° C.
Stability test (storage); 25° C., 48 days, listed as Embodiment 4
  Weight change (%): +0.03%
Stability test (storage); 25° C., 48 days, listed as Embodiment 6
  Weight change (%): +0.03%
Stability test (storage); 25° C., 48 days, listed as Embodiment 7
  Weight change (%): +0.01%
Stability test (storage); 60° C., 48 days
  Appearance (change after storage): Unchanged
  Crystal form (change after storage): Unchanged
Stability test (storage); 60° C., 48 days, listed as Embodiment 4
  Weight change (%): +0.02%
Stability test (storage); 60° C., 48 days, listed as Embodiment 6
  Weight change (%): +0.02%
Stability test (storage); 60° C., 48 days, listed as Embodiment 7
  Weight change (%): +0.01%
Stability test (storage); at 25° C. and 60° C.
  storage stability (in words): excellent storage stability
Bluegrass; [6]
  Plant control effect (%) Bluegrass: 85%
Euphorbia helioscopia; [6]
  Plant control effect (%) Euphorbia helioscopia: 85%
Alopecurus aequalis; [6]
  Plant control effect (%) Alopecurus aequalis: 86%

## CP(=O)(O)CC[C@H](N)C(=O)O.N [Crystal form A, L-glufosinate ammonium]
Hygroscopicity test; 20° C., humidity 65%, listed as A
  Weight change (%): +0.02%
Hygroscopicity test; 20° C., humidity 80%, listed as A
  Weight change (%): +1.45%
[1]; [7]
  Peak: 129° ° C.
  Start of heat absorption: 110° ° C.
[1]; versus the ammonium salt crystal forms in the existing patent
  high temperature stability (in words): better high temperature stability
Stability test (storage); 60° C., 7 days
  Appearance (change after storage): Unchanged
  Crystal form (change after storage): Unchanged
Stability test (storage)
  stability (in words): excellent stability
Bluegrass; [8]
  Plant control effect (%) Bluegrass: 80%
Euphorbia helioscopia; [8]
  Plant control effect (%) Euphorbia helioscopia: 80%
Alopecurus aequalis; [8]
  Plant control effect (%) Alopecurus aequalis: 80%

## CP(=O)(O)CC[C@H](N)C(=O)O.N [Crystal form E, L-glufosinate ammonium]
[2]; [9]
  temperature below which the weight of the crystal was basically unchanged: 95.5 °C
  temperature from which weight decreased rapidly (decomposition): 226.5 °C
  temperature from which weight started to decrease slowly (release of ammonia gas): 147 °C
[2]; starting at 95.5° C.
  slow weight decrease: 1.2%
Hygroscopicity test; 25° C., humidity 65%, listed as Embodiment 5
  Weight change (%): +0.02%
Hygroscopicity test; 25° C., humidity 65%, listed as Embodiment 8
  Weight change (%): +0.02%
Hygroscopicity test; 25° C., humidity 65%, listed as Embodiment 9
  Weight change (%): +0.02%
Hygroscopicity test; 25° C., humidity 80%, listed as Embodiment 5
  Weight change (%): +1.23%
Hygroscopicity test; 25° C., humidity 80%, listed as Embodiment 8
  Weight change (%): +1.15%
Hygroscopicity test; 25° C., humidity 80%, listed as Embodiment 9
  Weight change (%): +1.18%
[1]; [10]
  Peak: 185.833° ° C.
  Start of heat absorption: 147° ° C.
Stability test (storage); 25° C., 48 days
  Appearance (change after storage): Unchanged
  Crystal form (change after storage): Unchanged
Stability test (storage); 25° C., 48 days, listed as Embodiment 5
  Weight change (%): +0.02%
Stability test (storage); 25° C., 48 days, listed as Embodiment 8
  Weight change (%): +0.02%
Stability test (storage); 25° C., 48 days, listed as Embodiment 9
  Weight change (%): +0.02%
Stability test (storage); 60° C., 48 days, listed as Embodiment 5
  Weight change (%): +0.01%
Stability test (storage); 60° C., 48 days, listed as Embodiment 8
  Weight change (%): +0.02%
Stability test (storage); 60° C., 48 days, listed as Embodiment 9
  Weight change (%): +0.02%
Bluegrass; [11]
  Plant control effect (%) Bluegrass: 85%
Euphorbia helioscopia; [11]
  Plant control effect (%) Euphorbia helioscopia: 90%
Alopecurus aequalis; [11]
  Plant control effect (%) Alopecurus aequalis: 85%

## CP(=O)(O)CC[C@H](N)C(=O)O.N [Crystal form B, L-glufosinate ammonium]
Hygroscopicity test; 20° C., humidity 65%, listed as B
  Weight change (%): +0.03%
Hygroscopicity test; 20° C., humidity 80%, listed as B
  Weight change (%): +1.55%
[1]; [12]
  Peak: 134° ° C.
  Start of heat absorption: 125° ° C.
Bluegrass; [13]
  Plant control effect (%) Bluegrass: 80%
Euphorbia helioscopia; [13]
  Plant control effect (%) Euphorbia helioscopia: 80%
Alopecurus aequalis; [13]
  Plant control effect (%) Alopecurus aequalis: 85%
Rumex
  Plant control effect (%) Rumex: 100%
